Holding throughout (assay type): biochemical
Common to all, as to conditions: in vitro, pH 7.5, room temperature, 15 min preincubation, substrate 1-3 hours

One experiment addresses stromelysin (Homo sapiens, UniProt P08254). The experiment can be described thus: particle concentration fluorescence assay, inhibition of stromelysin. On the procedure: (§1) Inhibitory activity is evaluated in one or more of the MMP enzymes (stromelysin, gelatinase, and collagenase) in vitro using particle concentration fluorescence assay. An inhibitor binds to MMP enzymes which prevents the degradation of a substrate by stromelysin, gelatinase, or collagenase. The substrate has attached to it a fluorescein and a biotin moiety. The intact substrate then binds to an avidin-coated particle via the biotin moiety. Once the particle is washed and dried, a fluorescent signal is generated since the fluorescent group is attached to the particle. Without an inhibitor present, the substrate is degraded by MMP enzymes and the fluorescein group is removed, therefore, no fluorescent signal can be detected. Testing compounds are dissolved in DMSO to the desired concentration, then the solutions are diluted to 1:5 with MMP buffer (50 mM Tris-HCl, pH 7.5; 150 mM NaCl; 0.02% NaN3). Serial two-fold dilutions of each compound are prepared. A concentrated, activated enzyme solution is transferred into each plate of the testing compounds, and the mixture is incubated at room temperature for 15 minutes. Thawed MMP substrate is then added into all plates, and the plates are incubated in the dark for 1-3 hours at room temperature. At this point, the substrate mixture is mixed with 0.1% avidin-coated polystyrene particles. After 15 minutes, the fluorescence values are measured following filtration and washing of the beads. Ki values are then calculated.

The target in another experiment is gelatinase. The experiment can be described thus: particle concentration fluorescence assay, inhibition of gelatinase. On the procedure:
as §1

The target of a further experiment is collagenase. As to the kind of experiment: particle concentration fluorescence assay, inhibition of collagenase. As to the method:
as §1

In patent US5859061A, “Bis-sulfonamides hydroxamic acids as MMP inhibitors” (Pharmacia & Upjohn Company, priority 1998, dated 1999) one finds Ki data, which are given here for eight compounds.

Chain of stromelysin (P08254 100-477): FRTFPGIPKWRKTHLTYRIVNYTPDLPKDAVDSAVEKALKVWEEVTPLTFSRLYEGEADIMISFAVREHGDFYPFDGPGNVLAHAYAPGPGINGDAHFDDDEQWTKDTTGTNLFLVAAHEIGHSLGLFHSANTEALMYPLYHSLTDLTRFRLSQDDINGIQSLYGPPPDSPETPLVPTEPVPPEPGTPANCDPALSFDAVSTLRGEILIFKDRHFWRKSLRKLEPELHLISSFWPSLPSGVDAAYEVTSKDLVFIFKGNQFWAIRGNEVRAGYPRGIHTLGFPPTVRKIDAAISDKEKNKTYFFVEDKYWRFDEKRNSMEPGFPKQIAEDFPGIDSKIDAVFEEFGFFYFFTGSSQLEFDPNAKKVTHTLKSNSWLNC

Consider `Cc1ccc(S(=O)(=O)NCCCC(NS(=O)(=O)c2ccc(C)cc2)C(=O)NO)cc1` (stereo not drawn) [Example 7, N-Hydroxy-2,5-bis-[[4-methylphenylsulfonyl]amino] valeramide], for which the Ki on stromelysin came to 107 nM; at gelatinase, 5.1 nM; at collagenase, 570 nM.

As to `O=C(NO)C(CCNS(=O)(=O)c1ccc(F)cc1)NS(=O)(=O)c1ccc(F)cc1` (stereo not drawn) [Example 5, N-Hydroxy-2,4-bis-[[4-fluorophenylsulfonyl]amino] butanamide], the values for the Ki on stromelysin, on gelatinase and on collagenase were 45 nM, 16 nM and 60 nM, respectively.

Consider `Cc1ccc(S(=O)(=O)NCC(NS(=O)(=O)c2ccc(C)cc2)C(=O)NO)cc1` (stereo not drawn) [Example 4, N-Hydroxy-2,3-bis-[[4-methylphenylsulfonyl]amino] propionamide], for which the values for the Ki at stromelysin, on gelatinase and at collagenase were 844 nM, 20 nM and 449 nM, respectively.

In the case of `COc1ccc(S(=O)(=O)NCCC(NS(=O)(=O)c2ccc(OC)cc2)C(=O)NO)cc1` (stereo not drawn) [Example 8, N-Hydroxy-2,4-bis-[[4-methoxyphenylsulfonyl]amino] butanamide], the Ki at stromelysin stood at 1.2 nM; at gelatinase it was 0.7 nM; at collagenase it was 93 nM.

`Cc1ccc(S(=O)(=O)NCCC(NS(=O)(=O)c2ccc(C)cc2)C(=O)NO)cc1` (stereo not drawn) [Example 1, N-Hydroxy-2,4-bis-[[4-methylphenylsulfonyl]amino] butanamide]: the Ki stood at 2.4 nM at stromelysin, 0.94 nM on gelatinase and 48 nM at collagenase.

With `Cc1ccc(S(=O)(=O)NCC[C@@H](NS(=O)(=O)c2ccc(C)cc2)C(=O)NO)cc1` [Example 2, (R)-N-Hydroxy-2,4-bis-[[4-methylphenylsulfonyl]amino] butanamide], the values for the Ki at stromelysin, on gelatinase and on collagenase were 3.2 nM, 1.3 nM and 43 nM, respectively.

On to `Cc1ccc(S(=O)(=O)NCC[C@H](NS(=O)(=O)c2ccc(C)cc2)C(=O)NO)cc1` [Example 3, (S)-N-Hydroxy-2,4-bis-[[4-methylphenylsulfonyl]amino] butanamide], for which the Ki on stromelysin is 48 nM; at gelatinase, 35 nM; at collagenase it was 840 nM.

As for `O=C(NO)[C@H](CCNS(=O)(=O)c1ccccc1)NS(=O)(=O)c1ccccc1` [Example 6, (S)-N-Hydroxy-2,4-bis-[[phenylsulfonyl]amino] butanamide], the Ki at stromelysin was 2000 nM; at gelatinase, 284 nM; on collagenase, 3000 nM.
